Laboratory results from patent US7229621B2, “Method to enhance the immunogenicity of an antigen” (Torrey Pines Institute for Molecular Studies, priority 1998, dated 2007).

Columns and labels:
E.G7-OVA tumor cells = test: E.G7-OVA tumor growth after immunization with tumor antigen and migration inducer; assay type: in vivo, C57BL/6 mice
Excerpt: The tumor cell, E.G7-OVA, is the C57BL/6 EL4 thymoma transfected with the complete gene for chicken ovalbumin (OVA). The transfected cell line expresses OVA protein, which is also processed naturally by E.G7-OVA cells into an eight amino acid peptide, OVA257-264, with the sequence […]. […] Based on the positive results using FITC, the inventors followed a similar protocol in an attempt to induce immunity to the E.G7-OVA tumor by topical administration of the well-characterized, synthetic […] tumor-associated peptide.
C57BL/6 mice were treated as follows: 1) shaving alone; 2) topical administration of acetone and dibutyl phthalate; 3) topical administration of […] (240 μg/ml) in DMSO diluted in PBS, followed in 5 hours by acetone and dibutyl phthalate; and 4) topical administration of […] (240 μg/ml) in acetone and dibutyl phthalate. All mice were subsequently injected subcutaneously with 5×10^5 E.G7-OVA cells (5-times the minimal tumorogenic dose). Tumor-specific immunity was monitored by measuring the size of the developing tumor.
The mucous membranes lack the tough barrier posed by the stratum corneum of the skin. […] The EL4 parent tumor cell line, lacking chicken ovalbumin, was used as a negative control; no immunity against the EL4 tumor cells was seen. Thus, the inventors' hypothesis regarding penetration of the stratum corneum was confirmed; the […] peptide was not effectively reaching the immature dendritic cells, known as Langerhans cells, underlying the stratum corneum.
To enhance the effectiveness of cutaneous topical administration of peptide, […] was dissolved in DMSO and applied to the skin without further dilution. Dibutyl phthalate in a 50:50 mixture with acetone was applied to the same site 5 hr later. All mice were subsequently injected subcutaneously with 5×10^5 E.G7-OVA cells. The results shown in FIG. 6 indicate that the peptide in concentrated DMSO was apparently able to traverse the stratum corneum, effectively gaining access to the epidermal Langerhans cells. […] Thus, the tumor-specific peptide, […], in concentrated DMSO, penetrated the stratum corneum in sufficient concentration to be incorporated into the MHC class I molecule K^b on epidermal Langerhans cells, and in the presence of the migration inducer, dibutyl phthalate, was effectively presented to CD8+ CTLs in the draining lymph nodes.
To confirm the immunogenicity of the disclosed treatment, groups of 10 C57BL/6 mice were injected with 50 μl of 1.25 mM OVA protein in HBSS, with HBSS alone, or with nothing. This was followed an hour later by topical application of DBP in acetone or with nothing. One month later, the mice were inoculated subcutaneously with 5×10^5 EL4 tumor cells or with 5×10^5 E.G7-OVA tumor cells and subsequent tumor growth was measured.

[1] = test system: dendritic cells in draining inguinal lymph nodes; test: Antigen-bearing dendritic cells in lymph nodes after ultrasound application of soluble peptide followed by migration inducer; assay type: in vivo, C57BL/6 mice
Protocol: FIG. 9 illustrates the effect of delivering a peptide antigen ([…]) into the skin via ultrasound, followed by topical application of dibutyl phthalate and acetone to maximize the induction of dendritic cell migration and maturation. […] (240 μg) in DMSO, or DMSO alone, was applied to the shaved abdominal skin of C57BL/6 mice and covered with a hydrogel, into which was inserted a 13 mm diameter ultrasound transducer. Ultrasound was applied at 20 kHz and 1.6 W/cm^2, in 1 second pulses every 2 seconds for 6 minutes, for a total ultrasound dose of 288 J/cm^2. Two hours later, a 50:50 v/v solution of acetone and dibutyl phthalate was applied topically to the same area. Two days later, the skin draining inguinal lymph nodes were removed and the cells analyzed by immunofluorescent flow cytometry.
The antigen-bearing dendritic cells that had migrated to the draining lymph node are shown in the upper right quadrant of each dot plot. The dendritic cells in the lymph node were identified by their characteristic light scatter properties and exceptionally high surface expression of MHC class II (FL1), while the antigenic epitope was detected using the K^b:[…]-specific mAb 25-D1.16 (FL2), as described above.
(§1) As stated previously, whether mature antigen-bearing dendritic cells will be encountered by and activate naive T cells in the lymph node is likely to depend not only on the number of antigen-bearing dendritic cells that enter the node, but also on the density of MHC:peptide complexes expressed on their membranes. To estimate the density of peptide:MHC complexes on the immigrant dendritic cells generated by this procedure, we compared the fluorescence intensity of various cell populations detected by the peptide:MHC-specific mAb, 25-D1.16, using identical staining conditions and flow cytometer settings. The results are shown in Table IV, providing the number of specific peptide:MHC complexes expressed on the plasma membrane of dendritic cells after various treatments in vitro or in vivo.

E.G7-OVA cells = test: K^b:[…] complexes on E.G7-OVA cells (mAb 25-D1.16 fluorescence standard); assay type: cell-based, C57BL/6; details: endogenous SIINFEKL
Excerpt: as §1
The tumor cell, E.G7-OVA, is the C57BL/6 EL4 thymoma transfected with the complete gene for chicken ovalbumin (OVA). […] The number of those complexes expressed per cell has been measured independently by two different laboratories and reported to be 88 (Rotzschke et al. 1991 Eur. J. Immunol. 21:2891–2894) and 90 (Malarkannan et al. 1995 J. Exp. Med. 182:1739–1750). Therefore, the fluorescence intensity of E.G7-OVA could be used as a standard by which to estimate the number of K^b:[…] complexes expressed on the dendritic cell populations identified in the present study. […]

[2] = test system: dendritic cells in draining lymph node; test: Antigen-bearing dendritic cells in lymph node after aqueous antigen applied to skin with DBP and acetone; assay type: in vivo; details: aqueous solution applied to the skin with topical DBP and acetone (data not shown)
Excerpt: Similarly, when an aqueous solution of a […] peptide or OVA protein antigen was applied to the skin along with topical application of the migration inducer, DBP and acetone, no detectable antigen-bearing (i.e., K^b:[…] positive) dendritic cells appeared in the draining lymph node (data not shown).

[3] = 240 μg in DMSO, ultrasound 20 kHz, acetone/dibutyl phthalate 2 hours later, nodes two days later
[4] = immigrant Langerhans cells from inguinal lymph nodes 48 hrs after 240 μg SIINFEKL by ultrasound

With “SIINFEKL [eight amino acid peptide OVA257-264 of chicken ovalbumin, tumor-associated peptide antigen presented by K^b]” the “protection against E.G7-OVA tumor” value (E.G7-OVA tumor cells; SIINFEKL in acetone and dibutyl phthalate applied to the vaginal epithelium (FIG. 5)) was “protection against the tumor was induced”, the “established E.G7-OVA tumors” value (E.G7-OVA tumor cells; SIINFEKL in undiluted DMSO on skin, dibutyl phthalate 50:50 acetone 5 hr later (FIG. 6)) was “diminished by 16 days post-inoculation” and the E.G7-OVA tumor growth (E.G7-OVA tumor cells; SIINFEKL in undiluted DMSO on skin, dibutyl phthalate 50:50 acetone 5 hr later, 5×10^5 cells s.c. (FIG. 6)) was “suppressed after 6 to 9 days”. For the same sequence, the “inhibition of E.G7-OVA tumor cell growth” value (E.G7-OVA tumor cells; cutaneous topical SIINFEKL 240 μg/ml in DMSO diluted in PBS then acetone and dibutyl phthalate, or in acetone and dibutyl phthalate, 5×10^5 cells s.c. (FIG. 4)) was “none of the treatment protocols were effective”, the “Dendritic Cells per Lymph Node” value [1, 3] was 51,968 and the “K^b:SIINFEKL^+ DC per LymphNode” value [1, 3] was 13,216. For the same sequence, the “Total Cells per Lymph Node” value [1, 3] was 5.6 × 10^6, the Enhancement ([1]; K^b:SIINFEKL+ DC versus DMSO alone) was 5× and the “Median No. of Complexes/Cell” value [1, 4] was 633 complexes/cell. The “Median Specific Fl. Intensity” value [1, 4] was 32, the “cells reactive with mAb 25-D1.16 relative to absence of SIINFEKL” value ([1]; ultrasound-mediated topical exposure to SIINFEKL) was “five times” and the “Median Specific Fl. Intensity” value (E.G7-OVA cells) was 4.5. The “antigen-bearing (K^b:SIINFEKL positive) dendritic cells in the draining lymph node” value [2] was “no detectable”.
